{"source": "paper PMC5514153", "about": "“Targeting PTPRZ inhibits stem cell-like properties and tumorigenicity in glioblastoma cells” (Scientific Reports, 2017)", "key": {"[1]": {"assay": "Plasma and brain levels after intraperitoneal injection", "assay_type": "in vivo, C57BL6 mice", "settings": "for concentration at 1 h: mouse, ip, C57BL6 mice, 1 h after i.p. 30 mg/kg, two female mice", "description": "NAZ2329 successfully suppresses the cell proliferation and cell migration of the differentiated glioblastoma cells, as well as cell sphere formation (Figs 7 to 8). NAZ2329 is the first cell-permeable R5 RPTP inhibitor. […] Nevertheless, NAZ2329 is a potentially valuable lead therapeutic for the development of drugs that function through allosteric inhibitory mechanisms against PTPs, such as PTPRZ and PTPRG."}, "human U251 cells": {"test_system": "human U251 cells", "assay": "Cellular effects in U251 cells", "assay_type": "cell-based", "settings": "proliferation, migration, SOX2 (Supplementary Fig. S4)", "protocol": "This assay was performed as described previously. Briefly, cells were preincubated with compounds for 30 min, and then transferred onto a laminin-coated transwell insert in which the lower chambers contained epidermal growth factor (EGF, #E9644, Sigma-Aldrich). Cells were allowed to migrate for 3 h, and the number of cells that migrated to the lower surface was counted under a conventional fluorescence microscope.\nCells (3 × 10^4 cells) were inoculated into a 24-well plastic tissue culture plate with 500 µl of DMEM supplemented with 2% FBS and the indicated compounds for 48 h. Cells were harvested by trypsinization and then manually counted with a hemacytometer.\nCells were inoculated at 5 × 10^3 cells per 96-well uncoated polystyrene plate (# 9018, Corning) or 5 × 10^4 cells per 35-mm plastic petri dish (#351008, Corning), and cultured in a serum-free medium containing DMEM/F12 with 1x B27 supplement (#17504044, Thermo Fisher Scientific), EGF (20 ng/ml), and basic fibroblast growth factor (bFGF, 20 ng/ml, #064-05381, Wako pure chemical). After a 7-day culture, cells were fixed with 10% neutral formalin and pictured under a conventional microscope. The number of spheroids of approximately 70 µm in diameter were counted manually using Adobe Photoshop CS6 (Adobe)."}, "hPTPRZ1 (D1)": {"target": "T1, hPTPRZ1 (D1) (Homo sapiens, UniProt P23471)", "T1 construct": "human PTPRZ1-D1 (amino acid residues, 1,698-2,000)", "T1 sequence (P23471 1698-2000 limits assumed)": "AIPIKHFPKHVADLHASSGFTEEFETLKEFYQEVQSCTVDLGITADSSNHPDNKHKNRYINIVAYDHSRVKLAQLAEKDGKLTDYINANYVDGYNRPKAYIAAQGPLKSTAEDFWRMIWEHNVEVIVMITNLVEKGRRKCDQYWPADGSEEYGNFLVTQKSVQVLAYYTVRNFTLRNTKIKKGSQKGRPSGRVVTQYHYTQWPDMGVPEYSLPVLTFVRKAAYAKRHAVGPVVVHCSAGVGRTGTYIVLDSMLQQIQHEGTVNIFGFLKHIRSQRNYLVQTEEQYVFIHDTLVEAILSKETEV", "assay": "In vitro PTPase assay (DiFMUP), PTPRZ1 D1 domain", "assay_type": "biochemical", "settings": "first PTP domain fragment"}}, "note": "Read-outs that look alike come from different tables or passages of the source.", "data": [{"smiles": "CCOc1ccc(C(F)(F)F)cc1CSc1ccsc1C(=O)NS(=O)(=O)c1ccccc1", "note": "[NAZ2329]", "values": [{"measurement": "BBB permeability", "setting": "[1]; from plasma and brain levels 1 h after i.p. 30 mg/kg", "value": "poor BBB permeability"}, {"measurement": "concentration at 1 h", "setting": "[1]; brain, read-out: average level in brain", "value": 300, "unit": "ng/g"}, {"measurement": "concentration at 1 h", "setting": "[1]; plasma, read-out: average level in plasma", "value": 22000, "unit": "ng/mL"}, {"measurement": "cellular effects in U251 cells compared with C6 cells", "setting": "human U251 cells", "value": "exerted similar effects"}, {"measurement": "IC50", "setting": "hPTPRZ1 (D1)", "value": 1100, "unit": "nM"}]}]}
